Laboratory results reported in patent publication US20070244102A1, “Combination of Dermaciclane and Opoids as Analgesics” (priority 2004, published 2007).
Entries after “also recorded” stand apart in the source; their conditions may differ. Structures can show the parent of a compound that is named as a salt.

Experiments:
[1] = system: mice; assay: hot plate test in mice (influence on morphine analgesia); assay type: in vivo; settings: for influence on the analgesic effect of morphine (in words): 30 mg/kg ip. with morphine HCl 1 mg/kg sc.; for analgesia when given alone (in words): alone: morphine HCl 1 mg/kg sc., deramciclane 30 mg/kg ip., buspiron HCl 30 mg/kg ip.
Description: A modified of method of Eddy et al. (Eddy, N. B., Leimback, D., Synthetic Analgesics II. Dithienylbutenyl and Dithienylbutylamines. J. Pharmacol. Exp. Ther. 107: p. 385-393, 1953) was used. Male NMRI nice (20-25 g bodyweight) were dropped on a hot plate (56±0.5° C.) and the latency time elapsed until licking the forepaws was measured. The reaction time was tested twice before treatment. […] Mice were treated either with saline or with morphine HCl 1 mg/kg subcutaneously and at the same time either with vehicle or with deramciclane or buspirone, HCl 30 mg/kg intraperitoneally, respectively. After the treatment (15, 30, 45 and 60 min.) the reaction time was measured again. Animals were regarded as positive if they produced a 2.5-fold reaction time increase at least twice compared to their first control values. Statistical analysis was performed using the chi-square method.

[2] = single 0.7 mg/kg oral treatment; cited from earlier work
[3] = 1 and 10 mg/kg after oral administration; cited from earlier work
[4] = in the above mentioned doses (0.7-30 mg/kg); cited from earlier work
[5] = single oral dose of 3 mg/kg; cited from earlier work
[6] = 10 and 30 mg/kg after oral treatment; cited from earlier work
[7] = Saline sc. + Buspiron HCl 30 mg/kg ip.
[8] = Morphine HCl 1 mg/kg sc. + 0.4% methyl cellulose ip.
[9] = Morphine HCl 1 mg/kg sc. + Saline ip.

Compound | influence on the analgesic effect of morphine (in words) [1] | Effect % [1, 7] [%] | Positive/treated animals [1, 7] | analgesia when given alone (in words) ([1]; listed as buspiron HCl, HCl) | analgesia when given alone (in words) ([1]; listed as buspiron, HCl) | Effect % [1, 8] [%] | Positive/treated animals [1, 8] | Effect % [1, 9] [%] | Positive/treated animals [1, 9] | analgesia when given alone (in words) [1] | time spent with social interactions [2] | activity in Vogel punished drinking test [3] | Effect % ([1]; Saline sc. + Deramciclane 30 mg/kg ip.) [%] | Positive/treated animals ([1]; Saline sc. + Deramciclane 30 mg/kg ip., positive = 2.5-fold reaction time increase at least twice, 15-60 min) | analgesic activity [4] | activity in light-dark model [5] | activity in marble burying model [6]
O=C1CC2(CCCC2)CC(=O)N1CCCCN1CCN(c2ncccn2)CC1 [Buspiron HCl, buspirone, HCl] | did not influence the analgesic effect of morphine | 0 | 0/10 | Neither morphine HCl 1 mg/kg sc. nor deramciclane 30 mg/kg ip. nor buspiron HCl 30 mg/kg ip. alone produced analgesia | neither deramciclane nor buspiron possess analgesic effect in itself | – | – | – | – | – | – | – | – | – | – | – | –
CN1CC[C@]23c4c5ccc(O)c4O[C@H]2[C@@H](O)C=C[C@H]3[C@H]1C5.Cl [Morphine HCl, morphine HCl] | – | – | – | – | – | 0 | 0/10 | 0 | 0/10 | Neither morphine HCl 1 mg/kg sc. nor deramciclane 30 mg/kg ip. nor buspiron HCl 30 mg/kg ip. alone produced analgesia | – | – | – | – | – | – | –
(1R,2S,4R)-(−)-2-[N,N-(dimethylaminoethoxy)]-2-phenyl-1,7,7-trimethylbicyclo[2.2.1]heptane [Deramciclane] | potentiation of the analgesic effect of morphine | – | – | – | – | – | – | – | – | Neither morphine HCl 1 mg/kg sc. nor deramciclane 30 mg/kg ip. nor buspiron HCl 30 mg/kg ip. alone produced analgesia; also recorded: neither deramciclane nor buspiron possess analgesic effect in itself | increased the time spent with social interactions | active | 0 | 0/10 | did not possess analgesic activity | active | active
